# Source: publication PMC10288869, “Release of an encrypted, highly potent ACE-inhibitory peptide by enzymatic hydrolysis of moth bean (Vigna aconitifolia) protein” (Frontiers in Nutrition, 2023)
# Marks after values point to notes of the source that are not given here. No end group written: not given here.
# How the values were obtained:
# [1] = target: T1, Angiotensin-converting enzyme (ACE) (Sus scrofa, UniProt F1RRW5); assay: ACE inhibition activity determination (HHL substrate, colorimetric); assay type: biochemical, pig; conditions: for ACE inhibition % (before GI digestion): sample 0.1 mg of peptides/ml, 5 mM HHL, pH 8.3, 37°C, 30 min, absorbance 410 nm, mean ± SD, n = 3
# T1 construct: Angiotensin-converting enzyme (ACE) was extracted and purified from pig lung tissues; from tissue; host or cells: pig lung
# T1 sequence (F1RRW5 34-1309): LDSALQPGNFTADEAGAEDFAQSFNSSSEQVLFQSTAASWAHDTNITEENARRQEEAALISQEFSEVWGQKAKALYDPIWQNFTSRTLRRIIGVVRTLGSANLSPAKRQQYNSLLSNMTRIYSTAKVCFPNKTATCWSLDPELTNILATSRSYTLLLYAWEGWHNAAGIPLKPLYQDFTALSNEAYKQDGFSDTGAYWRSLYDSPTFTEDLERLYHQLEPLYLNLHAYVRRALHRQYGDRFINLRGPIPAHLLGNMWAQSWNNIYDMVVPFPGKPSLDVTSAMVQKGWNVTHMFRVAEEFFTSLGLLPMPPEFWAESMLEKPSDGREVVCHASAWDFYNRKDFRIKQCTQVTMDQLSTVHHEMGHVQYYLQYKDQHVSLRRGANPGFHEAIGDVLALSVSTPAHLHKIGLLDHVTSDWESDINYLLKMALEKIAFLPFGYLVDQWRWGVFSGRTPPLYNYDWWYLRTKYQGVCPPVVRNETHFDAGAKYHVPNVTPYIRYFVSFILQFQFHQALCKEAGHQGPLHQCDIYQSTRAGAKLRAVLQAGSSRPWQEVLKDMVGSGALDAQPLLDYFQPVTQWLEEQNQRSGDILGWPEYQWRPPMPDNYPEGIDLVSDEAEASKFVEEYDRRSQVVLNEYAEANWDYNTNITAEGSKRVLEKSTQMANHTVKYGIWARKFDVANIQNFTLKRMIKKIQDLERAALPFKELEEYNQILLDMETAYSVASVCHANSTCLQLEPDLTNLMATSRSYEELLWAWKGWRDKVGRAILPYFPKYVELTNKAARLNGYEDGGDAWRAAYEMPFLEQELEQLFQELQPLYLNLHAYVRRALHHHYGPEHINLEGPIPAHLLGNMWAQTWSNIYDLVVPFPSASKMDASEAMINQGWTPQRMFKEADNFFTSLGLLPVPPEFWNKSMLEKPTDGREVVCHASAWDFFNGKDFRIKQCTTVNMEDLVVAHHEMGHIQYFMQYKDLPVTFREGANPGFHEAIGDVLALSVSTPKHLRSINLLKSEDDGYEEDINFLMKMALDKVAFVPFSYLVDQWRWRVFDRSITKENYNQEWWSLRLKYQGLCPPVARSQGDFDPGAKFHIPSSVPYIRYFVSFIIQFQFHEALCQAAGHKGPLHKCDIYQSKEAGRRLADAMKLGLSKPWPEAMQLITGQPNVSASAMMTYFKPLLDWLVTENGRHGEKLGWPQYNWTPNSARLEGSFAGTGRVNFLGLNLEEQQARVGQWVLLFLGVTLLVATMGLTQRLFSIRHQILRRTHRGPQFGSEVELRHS
# Excerpt: Moth bean seeds (MBS-27 variety) were obtained from Mahatma Phule Krishi Vidyapeeth (MPKV), Rahuri, Maharashtra. Angiotensin-converting enzyme (ACE) was extracted and purified from pig lung tissues according to the protocol described by Abdulazeez Mansurah et al. ([19]). Pig lung tissues were brought from a local slaughterhouse (Deonar Abattoir, Mumbai). Pepsin (1,000 U/mg, from porcine), pancreatin 3x (3 NF/USP, from porcine pancreas), trypsin (>2,000 U/g, from bovine pancreas), and papain (from papaya latex) were purchased from HiMedia Laboratories Pvt. Ltd., Mumbai. HHL (N-Hippuryl- His- Leu hydrate) and captopril were purchased from Sigma–Aldrich Chemicals Private Limited, Bangalore, India. All the chemicals used were of analytical grade.
# (§1) Angiotensin-converting enzyme (ACE) inhibition activity was performed according to Jimsheena et al. ([23]), with minor modifications. In brief, 10 μl (0.1 mg of peptides/ml) of the sample was first incubated with 10 μl of ACE at 37°C for 5 min. Later, 30 μl of 50 mM phosphate buffer (pH 8.3) containing 150 mM NaCl and 50 μl of 5 mM HHL was added and mixed completely. The reaction mixture was kept for incubation in a water bath at 37°C for 30 min. The reaction was terminated by adding 100 μl of 1 M HCl. Subsequently, 200 μl of pyridine and 100 μl of benzene sulfonyl chloride (BSC) were added sequentially to the solution and vortexed for 10 s. The reaction mixture was, then, cooled on ice, and the absorbance was measured at 410 nm using a spectrophotometer. Captopril was used as a reference for comparison. ACE inhibition activity (%) was calculated as follows:
# ACE inhibition % = (1− As/Ac) x 100
# where As is the absorbance of the mixture containing the sample, and Ac is the absorbance of the mixture without inhibitor at 410 nm. IC50 values were determined for each fraction using a plot of ACE activity vs. inhibitor concentration.
# [2] = target: T1, Angiotensin-converting enzyme (ACE); assay: Gastrointestinal digestion simulation (SGF, SIF) followed by ACE inhibition assay; assay type: in vitro ADME, pig; design: increase in ACE inhibitory activity after intestinal digestion simulation / increase in ACE inhibitory activity due to cleavage by pepsin / ACE inhibitory activity decreased to (% of initial) following intestinal digestion simulation: concentration or dose not given beside the values; conditions: for ACE inhibition (%) after SGF: after gastric phase: simulated gastric fluid, pepsin 2,000U/ml, pH 2.5, 2 h; for ACE inhibition (%) after SGF / ACE inhibition (%) After SIF: 37°C, read-out ACE inhibition, mean ± SD, n = 3; for ACE inhibition (%) After SIF: after intestinal phase: simulated intestinal fluid, pancreatin 100U/ml, bile juice, pH 8, 2 h, following gastric phase; for increase in ACE inhibitory activity due to cleavage by pepsin: after gastric phase
# Description: as §1, with “follows: […]” for “follows:”
# The peptides synthesized were subjected to GI digestion simulation, as per the procedure described by Minekus et al. ([24]), with minor modifications. Bile juice was prepared according to Versantvoort et al. ([25]). Three steps of digestion (the mouth, stomach, and small intestine) were simulated, and the fluid was prepared to mimic physiological conditions. The composition of the simulated fluid is presented in Supplementary Table S2. The pH of the solution was adjusted by using 5 N NaOH and 6 N HCl. The digestion process was carried out using a stirring water bath at 37°C. Sampling was carried out after each step of digestion, and % ACE inhibition and degree of hydrolysis were calculated. Enzymes were inactivated by heating the fraction at 90°C for 10 min., followed by centrifugation at 10,000 g at 4°C for 15 min. The supernatant obtained was stored at −20°C for later study.
# [3] = target: T1, Angiotensin-converting enzyme (ACE); assay: ACE inhibition kinetics (Lineweaver-Burk plot, Dixon plot); assay type: biochemical, pig; conditions: HHL 1 to 7.5 mM, peptide 5 and 10 μM
# Description: The mechanism of ACE inhibition by a peptide showing the lowest IC50 value was identified by the rate of HHL hydrolysis measured over a range of concentrations (1 to 7.5 mM) by varying concentrations of inhibitory peptide (5 and 10 μM). The analysis was carried out by using a double reciprocal Lineweaver–Burk plot, to determine the mode of ACE inhibition, Michaelis–Menten constant (Km), and the maximum velocity (Vmax). The inhibitor constant (Ki) was determined by the Dixon plot.
# [4] = relative to activity before GI digestion
substance,measurement,setting,value
AENNQR [pp-25],ACE inhibition % (before GI digestion),[1]; synthesized peptide,11.8 ± 2.9^i %
same,ACE inhibition (%) after SGF,[2],9.8 ± 2.8^i %
same,ACE inhibition (%) After SIF,[2],14.5 ± 0.5^h %
ATDETGSK [pp-33],ACE inhibition % (before GI digestion),[1]; synthesized peptide,13.1 ± 4.7^h %
same,ACE inhibition (%) after SGF,[2],15.1 ± 0.6^h %
same,ACE inhibition (%) After SIF,[2],15.6 ± 1.9^h %
FPPPKVIQ [pp-28],IC50,"[1]; purification steps of ACE-inhibitory peptide, read-out: IC50 (μg/ml) (converted)",216 nM
same,IC50,"[1]; synthesized peptide, before GI digestion, read-out: IC50 of ACE inhibition",240 nM
same,ACE inhibition % (before GI digestion),[1]; synthesized peptide,93.4 ± 1.7^a %
same,IC50,[2]; after GI digestion simulation (digestion by trypsin in intestinal phase),20000 nM
same,ACE inhibition (%) after SGF,[2],90.5 ± 4.6^a %
same,ACE inhibition (%) After SIF,[2],59.6 ± 0.3^b %
same,ACE inhibition (%) After SIF,[2]; listed as FPPPKVIQ,~ 59%
same,Ki,[3],810 nM
GDTGRQQ [pp-1],ACE inhibition % (before GI digestion),[1]; synthesized peptide,21.8 ±2.3^g %
same,ACE inhibition (%) after SGF,[2],24.0 ± 5.7^g %
same,ACE inhibition (%) After SIF,[2],7.6 ± 1.2^j %
same,ACE inhibitory activity decreased to (% of initial) following intestinal digestion simulation,[2]; [4],35%
HDTGRQH [pp-8],ACE inhibition % (before GI digestion),[1]; synthesized peptide,12.1 ±5.5^i %
same,ACE inhibition (%) after SGF,[2],11.8 ± 1.3^i %
same,ACE inhibition (%) After SIF,[2],21.3 ± 0.3^g %
HPGDDKS [pp-30],ACE inhibition % (before GI digestion),[1]; synthesized peptide,34.3 ± 7.7^e %
same,ACE inhibition (%) after SGF,[2],31.1 ± 0.7^e %
same,ACE inhibition (%) After SIF,[2],6.2 ± 4.3^j %
same,ACE inhibitory activity decreased to (% of initial) following intestinal digestion simulation,[2]; [4],18%
HVDSGK [pp-18],ACE inhibition % (before GI digestion),[1]; synthesized peptide,8.2 ± 4.3^i %
same,ACE inhibition (%) after SGF,[2],9.6 ± 0.5^i %
same,ACE inhibition (%) After SIF,[2],15.3 ± 3.6^h %
same,increase in ACE inhibitory activity after intestinal digestion simulation,[2]; [4],86%
IEPLPPR [pp-16],ACE inhibition % (before GI digestion),[1]; synthesized peptide,36.0 ± 1.9^e %
same,ACE inhibition (%) after SGF,[2],30.0 ± 0.4^f %
same,ACE inhibition (%) After SIF,[2],33.6 ± 3.2^f %
ISGGSSR [pp-39],ACE inhibition % (before GI digestion),[1]; synthesized peptide,23.6 ± 6.9^g %
same,ACE inhibition (%) after SGF,[2],21.1 ± 0.8^g %
same,ACE inhibition (%) After SIF,[2],19.0 ± 1.8^g %
LTAEHPVV [pp-44],ACE inhibition % (before GI digestion),[1]; synthesized peptide,6.4 ± 1.0^j %
same,increase in ACE inhibitory activity due to cleavage by pepsin,[2]; [4],236%
same,ACE inhibition (%) after SGF,[2],21.5 ± 3.4^g %
same,ACE inhibition (%) After SIF,[2],18.8 ± 9.9^g %
NNPHR [pp-24],ACE inhibition % (before GI digestion),[1]; synthesized peptide,47.1 ±6.7^d %
same,ACE inhibition (%) after SGF,[2],41.4 ± 2.2^d %
same,ACE inhibition (%) After SIF,[2],15.0 ± 0.6^h %
same,reduction in ACE inhibitory activity after intestinal digestion simulation,[2]; [4],68%
TFAPGF [pp-45],ACE inhibition % (before GI digestion),[1]; synthesized peptide,41.9 ± 6.9^d %
same,increase in ACE inhibitory activity due to cleavage by pepsin,[2]; [4],77%
same,ACE inhibition (%) after SGF,[2],74.3 ± 2.2^b %
same,ACE inhibition (%) After SIF,[2],17.9 ± 1.8^g %
TGDTGR [pp-6],ACE inhibition % (before GI digestion),[1]; synthesized peptide,3.9 ± 5.5^k %
same,ACE inhibition (%) after SGF,[2],3.9 ± 1.3^k %
same,ACE inhibition (%) After SIF,[2],4.2 ± 1.3^k %
TGDTGRQH [pp-4],ACE inhibition % (before GI digestion),[1]; synthesized peptide,16.5 ± 2.1^g %
same,ACE inhibition (%) after SGF,[2],18.0 ± 2.9^g %
same,ACE inhibition (%) After SIF,[2],33.6 ± 1.2^f %
same,increase in ACE inhibitory activity after intestinal digestion simulation,[2]; [4],103%
VEPLPPR [pp-15],ACE inhibition % (before GI digestion),[1]; synthesized peptide,55.9 ± 1.3^c %
same,ACE inhibition (%) after SGF,[2],51.0 ± 3.4^c %
same,ACE inhibition (%) After SIF,[2],52.3 ± 3.8^c %
